The assay relates to MAGE antigens. Kind of assay: Expression of MAGE antigens by RT-PCR (Q-PCR) in CD3/CD28-activated lymphocytes. It counts as cell-based, human. Particulars: 10 μM for 2 days in the presence of IL-2 (150 IU/ml); FIG. 3. The procedure: Expression of MAGE antigens was determined as follows. The frozen pellets of cells were thawed, and total RNA was isolated from lymphocytes using the NucleoSpin RNA Plus kit (Macherey-Nagel), and reverse transcribed using SuperScript™ IV VILO™ Master Mix with ezDNase™ Enzyme (Invitrogen) and random hexamers and oligo(dT24) primers. cDNA was amplified in a LightCycler Nano (Roche) using the FastStart Essential DNA Green Master mix (Roche) and previously described primers and conditions (Weinert et al., 2009), except primers for MAGE-A4, provided by RealTimePrimers.com. The data were normalized to GAPDH expression.
The cell suspension was transferred to a 50 ml tube, and the cell concentration was determined. At this stage the culture contains only activated lymphocytes, and upon counting in a Moxi cell counter appear as a single peak of cells with an average size of 10-11 μm. 2×10^7 cells (or all cells) were set for centrifugation. […]
5-Aza-CdR-treated cultures were harvested and centrifuged. […] After this, cells were counted, and 10×10^6 cells were mixed with 10×10^6 thawed lymphocytes, and after centrifugation, resuspended in 20 ml of lymphocyte medium and transferred to a T75 tissue culture flask, side position. […]

On to `Nc1ncn([C@H]2C[C@H](O)[C@@H](CO)O2)c(=O)n1` [5-aza-CdR, 5-aza-2′-deoxycytidine], for which the “expression of selected CT antigens of the MAGE family” value is “Robust and consistent expression”.

For the origin of these results see patent publication US20250333699A1, “METHOD FOR PREPARATION OF CYTOTOXIC T LYMPHOCYTES WITH BROAD TUMOUR-SPECIFIC REACTIVITY AND CHARACTERISTICS OF EARLY DIFFERENTIATION CELLS” (priority 2021, published 2025).
